# Results from US20170096708A1, “DIAGNOSTIC METHOD” (Convergence Pharmaceuticals Limited, priority 2014, published 2017).
# Where a name gives a salt, the structure may show the parent alone.
# System: trigeminal neuralgia (TGN) patients
# Experiment: 7 week randomized withdrawal trial with trigeminal neuralgia (TGN) patients
# Format: in vivo, human
# Text: CNV1014802 is a novel Nav1.7 selective state-dependent sodium channel blocker that is being assessed in the treatment of trigeminal neuralgia. The trial used a randomized withdrawal design to assess efficacy in this rare condition and comprised a 21-day open-label phase followed by a randomized 28-day placebo-controlled phase for responders as described in Zakrzewska et al., (2013) Trials 14:402). Patients participated in an initial open-label treatment period of 21 days of CNV1014802 using 150 mg three times daily. Responders were then randomized to 28 days of CNV1014802 150 mg three times daily or placebo. A responder at the end of the open-label period was defined as a patient with one of the following: • 1) a 30% or more decrease in the total number of paroxysms over the last 7 days of the open-label phase as compared to the total number recorded in the 7-day baseline phase (day-7 to -1 prior to start of study medication, Run in); and/or • 2) a 30% reduction in the mean severity of pain experienced during the paroxysm over the last 7 days of the open-label phase as compared to the total number recorded in the 7-day baseline phase (day-7 to -1 prior to start of study medication, run in); and/or • 3) a Patient Global Improvement of Change rating of much improved/very much improved. Responders were randomized to CNV1014802 or placebo, in a 1:1 ratio. During the double-blind randomized phase, patients were evaluated at each clinic visit, which occurred every 7 days to determine whether they met the failure criteria in the double-blind treatment period. […]
structure (smiles),measurement,setting,value
"NC(=O)[C@@H]1CC[C@H](c2ccc(OCc3ccccc3F)cc2)N1 [CNV1014802, (5R)-5-(4-{[(2-fluorophenyl)methyl]oxy}phenyl)-L-prolinamide hydrochloride salt]",reduction in pain severity,"150 mg three times daily, final week of double-blind (week 7) vs 7 day run-in, LOCF, compared to placebo group, p=0.04, FIG. 1",superior
same,reduction in the number of paroxysms,"150 mg three times daily, final week of double-blind (week 7) vs 7 day run-in, LOCF, compared to placebo group, p=0.08, FIG. 1",superior
same,response to treatment in patients with genetic variations within the CACNA1A gene and/or the CACNA1B gene,"all patients with genetic variations, responder criteria of the 21-day open-label phase",responded to treatment
